# Laboratory results reported in US11628198B2, “Methods for prevention and treatment of acute renal injury” (Cornell University, priority 2008, dated 2023).
# “And” between values parts separate entries of the source, which are not always exact repeats. Equal entries are not always repeated.
# Legend:
# Type in all cases: in vivo, rat
# [1] = system: ATP content in renal tissue; test: I/R model: ATP content assay of kidney tissue
# Procedure: Sprague Dawley rats (250˜300 g) were assigned to four groups: (1) sham surgery group without I/R; (2) I/R+saline vehicle treatment; (3) I/R+SS-20 treatment; (4) I/R+SS-31 treatment. Each experimental group consisted of 8 rats. SS-20 and SS-31 (3 mg/kg, dissolved in saline) were administered to rats 30 min before ischemia and immediately before onset of reperfusion. The control rats were given saline alone on the same schedule.
# Rats were anesthetized with a mixture of ketamine (90 mg/kg, i.p.) and xylazine (4 mg/kg, i.p.). The left renal vascular pedicle was occluded temporarily using a micro-clamp for 30 or 45 min. At the end of the ischemic period, reperfusion was established by removing of the clamp. At that time, the contralateral right kidney was removed. After 24 h reperfusion, animals were sacrificed and blood samples were obtained by cardiac puncture. Renal function was determined by blood urea nitrogen (BUN) and serum creatinine (BioAssay Systems DIUR-500 and DICT-500).
# ATP Content Assay: The kidney tissue was immediately put into 10 ml 5% trichloroacetic acid with 10 mM DTT, 2 mM EDTA and cut into small pieces. The tissue was homogenized on ice, incubated for another 10 min, centrifuged for 10 min at 2000×g, and neutralized with 10N KOH to pH 7.6. After centrifugation for 10 min at 2000×g, aliquots of the resulting supernatant were stored at −80° C. ATP was measured by bioluminescence (ATP bioluminescent kit, Sigma, MO, USA).
# [2] = system: radiocontrast dye-induced renal failure; test: CIN, indomethacin/L-NAME model, Experiment 2
# Procedure: Animal model: The same indomethacin and L-NAME model described above was used in this experiment. In this model, impaired renal function was induced by the administration of indomethacin (8 mg/kg) and L-NAME (10 mg/kg).
# Renal function: Renal function was assessed by determining serum and urinary creatinine using DICT-kit from Bioassays Systems (Hayward, Calif.) at baseline and 26 h following dye administration. Urinary protein concentration was also determined at baseline and 26 h following dye administration by BCA Protein Assay kit (Thermo Scientific, Rockford, Ill.). Samples were analyzed by students t-test and differences were considered significant at p<0.05.
# Renal Histology: Kidneys were fixed in 10% neutral-buffered formalin and embedded in paraffin wax. Three micron sections were stained with hematoxylin-eosin (H&E) and periodic acid-Schiff (PAS) and analyzed by light microscopy by a board certified pathologist.
# [3] = system: contrast induced nephropathy in diabetic animal model; test: CIN in diabetic (HFD/STZ) rats with iohexol, Experiment 2
# Procedure: In this experiment, 30 SD rats were fed with high fat diet for 6 weeks, followed by the injection with low dose streptozotocin (30 mg/kg). After 9 more weeks, the rats were used in the contrast induced nephropathy study. The animals were divided into 2 groups with the doses, dosing schedules and study protocol as follows. On day 0, the weight of the animals was determined and glucose and serum samples were collected. On day 1, Scr was assayed and spot urine collection performed. On days 2 and 3, 3 mg/kg SS-31 (Group 1) or a vehicle (Group 2) was administered s.c. 30 min prior to the dye injection (6 mL/kg i.v. tail vein). SS-31 (Group 1) or PBS (Group 2) administration was repeated at 2 h, 1 day, 2, days, 3 days, 4 days, and 5 day post-dye administration. On day 8, serum and urine samples were collected and the rats were euthaniszed to harvest kidneys and vital organs.
# Renal function: Renal function was assessed by determining serum and urinary creatinine using Jiancheng Cr kit (Nanjing, P.R.C) at baseline, 24 h, 3 day and 6 days following contrast dye (Iohexol) administration. The creatinine clearance was calculated based on the Scr, Ucr and Urinary volume. Samples were analyzed by students t-test and differences were considered significant at p<0.05.
# [4] = system: contrast induced nephropathy in diabetic animal model; test: CIN in diabetic (HFD/STZ) rats with iohexol, Experiment 3; conditions: individual rats of Group C
# Procedure: In this experiment, 20 SD rats were fed with high fat diet for 6 weeks, followed by the injection with low dose streptozotocin (35 mg/kg). After 15 more weeks, the rats were subjected to contrast induced nephropathy study. In addition, we included a normal control group was included in which 9 rats from the same batch on regular chow diet were subjected to the same protocol.
# […] The creatinine clearance was calculated based on the Scr, Ucr and urinary volume. Samples were analyzed by students t-test and differences were considered significant at p<0.05.
# [5] = system: CIN in glycerol-induced rhabdomyolysis animal model; test: CIN in glycerol-induced rhabdomyolysis model, Experiment 1
# Procedure: In this model, SD rats with body weight of 300-400 g were dehydrated for 24 h followed by i.m. injection of 25% glycerol solution (v/v) at the dose of 10 ml/kg. Twenty-four hours (24 h) later, the rats were grouped and subjected to a contrast induced nephropathy study protocol as detailed in FIG. 20. The effects of SS-31 on ARI can be examined by comparing the renal functions in animals from group C with those from group B. Samples were analyzed by students t-test and differences were considered significant at p<0.05.
# Renal function: Renal function was assessed by determining serum and urinary creatinine using Jiancheng Cr kit (Nanjing, P.R.C) at baseline, 24 h after dehydration and 48 h post the contrast dye administration. The creatinine clearance was calculated based on the Scr, Ucr and urinary volume. Urinary microalbumin concentration was determined by a competition ELISA assay.
# [6] = 26 h post contrast dye vs baseline
substance,measurement,setting,value
D-Arg-2′6′Dmt-Lys-Phe-NH2 [SS-31],ATP content in renal tissue,"[1]; 1 h reperfusion following 45 min ischemia, vs vehicle",significantly higher
same,ATP content in renal tissue,[1]; end of 15 min ischemia,not altered
same,SCr,[2]; 1 day (26 h post dye),0.73 ± 0.04 mg/dL
same,U protein BCA,[2]; 1 day (26 h post dye),11.76 ± 2.71 mg/mL
same,Ucr,[2]; 1 day (26 h post dye),38.12 ± 8.19 mg/dL
same,Scr increase,[2]; [6],9%
same,urinary protein concentration increase,[2]; [6],1.7 fold
same,rats protected from contrast dye induced nephropathy (Scr increase less than 25% at 26 h post dye),[2]; 26 h post dye,Five out of seven
same,SCr,[2]; Baseline,0.67 ± 0.09 mg/dL
same,U protein BCA,[2]; Baseline,4.28 ± 1.15 mg/mL
same,Ucr,[2]; Baseline,15.54 ± 3.87 mg/dL
same,PAS staining of kidney,[2]; dye-injected,intact brush borders and normal glomeruli
same,GFR,[3]; Baseline,159.2±25.1 μl/min/100 g
same,Scr,[3]; Baseline,214.6 ± 15.4 µmol/L
same,U protein,[3]; Baseline,5.4 ± 1.1 mg/4 h
same,U vol,[3]; Baseline,18.1 ± 4.4 mL
same,Ucr,[3]; Baseline,4182.5 ± 699.8 µmol/L
same,GFR,[3]; T1 (24 h post dye),159.9±9 μl/min/100 g
same,Scr,[3]; T1 (24 h post dye),168.6 ± 21.9 µmol/L
same,U protein,[3]; T1 (24 h post dye),3.6 ± 0.8 mg/4 h
same,U vol,[3]; T1 (24 h post dye),15.2 ± 4.3 mL
same,Ucr,[3]; T1 (24 h post dye),4488.9 ± 861.6 µmol/L
same,GFR,[3]; T2 (3 day post dye),100.9 ± 16.7 μl/min/100 g
same,Scr,[3]; T2 (3 day post dye),236.2 ± 26.6 µmol/L
same,U protein,[3]; T2 (3 day post dye),4.3 ± 0.9 mg/4 h
same,U vol,[3]; T2 (3 day post dye),12.8 ± 3.6 mL
same,Ucr,[3]; T2 (3 day post dye),4744.8 ± 1350.6 µmol/L
same,GFR,[3]; T3 (6 days post dye),121.5 ± 9.1 μl/min/100 g
same,Scr,[3]; T3 (6 days post dye),175.3 ± 25.9 µmol/L
same,U protein,[3]; T3 (6 days post dye),2.4 ± 0.4 mg/4 h
same,U vol,[3]; T3 (6 days post dye),9.6 ± 2.3 mL
same,Ucr,[3]; T3 (6 days post dye),4030.7 ± 620 µmol/L
same,Scr T22h,[4]; T22h post dye,25 μM (2×) and 26 μM and 24 μM and 27 μM and 28 μM and 30 μM and 35 μM and 19 μM
same,Scr % change T22,[4]; T22h vs Tb,0% and 4% and −11% and 9% and −7% and 17% and 20% and 40% and −34%
same,Scr Tb,[4]; baseline,25 μM (4×) and 27 μM and 23 μM and 29 μM (2×) and 24 μM
same,urinary microalbumin level,"[5]; T0, after 24 h dehydration, no peptide treatment at this time point",757.7±462.9 μg/24 h
same,total albuminuria,"[5]; T2, compared to the vehicle treated group",decreased significantly
same,PAS staining of kidney,"[5]; glycerin, dye","intact brush borders, normal glomeruli and minimum protein cast in the tubular cells"
